We go through one compound from paper PMC12015759, “A humanized Gs-coupled DREADD for circuit and behavior modulation” (Frontiers in Cellular Neuroscience, 2025).

For test [1], the target named is T1, hM3Ds (Homo sapiens, UniProt P20309, A178S/A239G/A490L/DEL258-409/DEL413-482/I254V/INS485[…]/K179L/K183A/K256R/K487Q/L174F/L483Q/R172S/R177Q/R180L/T175R/T182R/Y149C/Y255F).
T1 sequence (P20309 with tags, fused parts or gaps Y149C/R172S/L174F/T175R/R177Q/A178S/K179L/R180L/T182R/K183A/A239G/I254V/Y255F/K256R/DEL258-409/DEL413-482/L483Q/INS485[…]/K487Q/A490L): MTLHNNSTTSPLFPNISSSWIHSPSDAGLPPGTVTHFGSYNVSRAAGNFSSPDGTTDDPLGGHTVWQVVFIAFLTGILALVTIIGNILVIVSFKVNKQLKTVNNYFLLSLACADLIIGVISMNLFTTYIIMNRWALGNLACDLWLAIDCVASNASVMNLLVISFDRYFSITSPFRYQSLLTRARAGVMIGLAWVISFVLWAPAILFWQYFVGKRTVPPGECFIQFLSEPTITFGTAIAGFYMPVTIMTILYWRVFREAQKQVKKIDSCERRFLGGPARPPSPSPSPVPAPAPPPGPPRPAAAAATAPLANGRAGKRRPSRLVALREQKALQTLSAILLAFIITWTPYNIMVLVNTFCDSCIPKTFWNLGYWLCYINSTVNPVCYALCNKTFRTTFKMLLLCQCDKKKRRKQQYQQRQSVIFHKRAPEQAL
Kind of test: Ca2+ imaging (GCaMP6s) in hM3Ds-transfected HEK293T cells. It is filed as cell-based. More on the design: hM3Ds was subcloned into pAAV-CMV-EYFP to replace EYFP; expressed in transfected cells; host or cells: HEK293T. The conditions noted are these: CNO 10 μM, 10 min. The protocol:
As for the Ca^2+ imaging assay, HEK293T cells (ATCC) were seeded in 24-well plate with DMEM containing 10% fetal bovine serum. Upon reaching ~80% confluency, cells were cotransfected with pAAV-CAG-GCaMP6s (0.1 μg), and pAAV-CMV-hM3Ds or pAAV-CMV-hM3Dq (0.1 μg).
48 h after transfection, the medium in each well was replaced with 400 μL CNO (10 μM) solution, or with 400 μL vehicle (medium only). […] Cell fluorescence were imaged under microscopy and quantified using ImageJ.

A further test addresses T2, rM3Ds (Rattus norvegicus, UniProt P08483, A177S/A238G/A489L/DEL261-437/DEL441-478/E258S/I253V/I483M/INS256[…]/K178L/K182A/K255R/K484R/K486H/L173F/L482A/M480V/R171S/R176Q/R179M/S481M/T174R/T181R/T257A/Y148C).
T2 construct: host or cells: HEK293T
T2 sequence (P08483 with tags, fused parts or gaps Y148C/R171S/L173F/T174R/R176Q/A177S/K178L/R179M/T181R/K182A/A238G/I253V/K255R/INS256[…]/T257A/E258S/DEL261-437/DEL441-478/M480V/S481M/L482A/I483M/K484R/K486H/A489L): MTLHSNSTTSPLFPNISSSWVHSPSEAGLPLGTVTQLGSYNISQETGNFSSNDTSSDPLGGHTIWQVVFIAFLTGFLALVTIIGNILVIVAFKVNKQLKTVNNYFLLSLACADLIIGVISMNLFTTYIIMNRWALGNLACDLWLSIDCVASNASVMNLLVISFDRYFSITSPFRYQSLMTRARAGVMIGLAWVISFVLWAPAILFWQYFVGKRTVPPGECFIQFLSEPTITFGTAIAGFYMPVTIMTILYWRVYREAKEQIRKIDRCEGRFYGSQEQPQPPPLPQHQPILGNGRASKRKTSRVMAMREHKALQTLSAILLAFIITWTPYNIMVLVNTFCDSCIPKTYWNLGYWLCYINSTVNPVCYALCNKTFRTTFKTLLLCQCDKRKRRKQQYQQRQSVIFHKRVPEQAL
Kind of test: cAMP assay (CRE-luciferase reporter) in HEK293T cells expressing rM3Ds. The test is classed as cell-based. The conditions noted are these: CNO on rM3Ds, HEK293T, 6 h, firefly/renilla luciferase ratio.

A further test concerns the target T3, hM3-ti23-Ds (Homo sapiens, UniProt P20309, A178S/A239G/A490L/D442R/DEL262-438/DEL444-462/DEL467-485/E259S/I254V/INS257[…]/K179L/K183A/K256R/K465M/K487H/L174F/L463M/R172S/R177Q/R180M/T175R/T182R/T258A/Y149C).
T3 sequence (P20309 with tags, fused parts or gaps Y149C/R172S/L174F/T175R/R177Q/A178S/K179L/R180M/T182R/K183A/A239G/I254V/K256R/INS257[…]/T258A/E259S/DEL262-438/D442R/DEL444-462/L463M/K465M/DEL467-485/K487H/A490L): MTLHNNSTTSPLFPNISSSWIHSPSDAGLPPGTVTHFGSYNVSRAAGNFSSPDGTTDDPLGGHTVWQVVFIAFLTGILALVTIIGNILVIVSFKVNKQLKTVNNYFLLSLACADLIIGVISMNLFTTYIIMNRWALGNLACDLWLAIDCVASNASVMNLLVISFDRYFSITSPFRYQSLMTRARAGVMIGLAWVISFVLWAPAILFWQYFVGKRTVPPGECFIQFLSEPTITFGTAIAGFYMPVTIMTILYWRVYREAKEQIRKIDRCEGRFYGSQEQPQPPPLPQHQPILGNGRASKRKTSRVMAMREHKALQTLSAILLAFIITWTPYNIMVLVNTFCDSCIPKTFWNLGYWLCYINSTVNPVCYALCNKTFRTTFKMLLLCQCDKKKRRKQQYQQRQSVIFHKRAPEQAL
The protocol:
(§1) As for the cAMP assay, HEK293T cells (ATCC) were seeded in 6-well plate with DMEM containing 10% fetal bovine serum. Upon reaching ~80% confluency, cells were transfected with DREADDs plasmids (30 ng), pCRE-Luc (GeneBank accession: AF053461.1, 600 ng) and pRL-SV40 (GeneBank accession: AF025845.2, 150 ng). The following day, cells were redistributed from 6-well plates to white opaque 96-well plates pre-coated with poly-L-lysine (Solarbio).
(§2) The plates were then placed back in the cell incubator for 6 h. The cAMP level was detected using a Dual Glo Luciferase Reporter Gene Assay Kit (YEASEN) following the manufacturer’s protocol. The data of each well was presented as the ratio of firefly luciferase luminescence to renilla luciferase luminescence.
(§3) We next examined whether the chemogenetic receptor ligand, CNO, could stimulate hM3-ti23-Ds and hM3Ds and induce up-regulation of cAMP level. We co-transfected HEK293T cells with engineered receptors and the reporter vector, pCRE-Luc, which contains a cAMP response element-driven firefly luciferase (Luc) ([Bokar et al., 1988]); pRL-SV40 encoding renilla luciferase was simultaneously transfected as a transfection efficiency control.

The target in test [2] is T1, hM3Ds. The protocol: as §1, §2, §3

Take `C[N+]1([O-])CCN(C2=Nc3cc(Cl)ccc3Nc3ccccc32)CC1` [CNO, clozapine N-oxide]: the calcium rise entry at hM3Ds [1] is “did not induce detectable levels of calcium rise”. The 50% effective concentration (EC50) (as a rule, the concentration at which the effect is half-maximal) on rM3Ds is 2.39 ± 0.25 nM; on hM3Ds [2] (CNO on hM3Ds, HEK293T, 6 h, firefly/renilla luciferase ratio) it was 1.26 ± 0.2 nM. Besides, the “fold change in luciferase activity” value on hM3-ti23-Ds (CNO at 10 μM, compared to rM3Ds and hM3Ds) is “lower fold change”; on hM3Ds [2] (CNO at 10 μM, hM3Ds, compared to rM3Ds), “comparable fold change”. Moreover, the cAMP response entry was “dose-dependently increased the cAMP response” at hM3-ti23-Ds (HEK293T) and “dose-dependently increased the cAMP response” on hM3Ds [2] (hM3Ds, HEK293T).
